Data from patent publication US20190298721A1, “STABLE PRO-VITAMIN DERIVATIVE COMPOUNDS, PHARMACEUTICAL AND DIETARY COMPOSITIONS, AND METHODS OF THEIR USE” (CORNELL UNIVERSITY, priority 2016, published 2019).

Tests used:
[1] = system: immortalized mouse fibroblasts (CHIP) cells; test: Cell proliferation of immortalized mouse fibroblasts (CHIP) in Defined αMEM supplemented with folate forms (bright field image analysis); assay type: cell-based; conditions: range of concentrations, approximately three doublings, compared with Leucovorin and folic acid (FIG. 6B)
Procedure: (§1) HeLa cells and immortalized mouse fibroblasts (CHIP) cells were plated in 96-well plates, 1000 cells per well. Total cell number was monitored over time using bright field image analysis on a Celigo cytometer (Nexcelom, Inc.) according to manufacturers' protocols. Data was represented as average±standard deviation for 10 biological replicates per condition. Cells were cultured in Defined αMEM culture media (lacking folate, serine, glycine, methionine, nucleosides/nucleotides, and pyridoxine) which was supplemented with 200 μM methionine, 0.5 g/L pyridoxine, and varying concentrations of folic acid, (6S)-Leucovorin or novel folate derivative. Before plating for proliferation assays, HeLa cells and CHIP cells were cultured for three doublings in Defined αMEM lacking folate to deplete intracellular folates.

[2] = Stability in AIN-93G mouse food pellets; assay type: physicochemical; conditions: for at least 10 weeks; pellets stored at room temperature or −20° C. (FIGS. 9A-B)
Procedure: Folic acid and (6S)-5-formyl, 10-formyl-tetrahydrofolate were shipped to Dyets, Bethlehem, Pa. as folate sources for the formulation of AIN-93G, a defined growth diet formulated for rodents by the American Institute of Nutrition. The stability of folic acid and (6S)-5-formyl, 10-formyl-tetrahydrofolate in food pellets was determined over a 10 week period.

[3] = Mice fed AIN-93G diet containing the folate source (growth, adverse symptoms); assay type: in vivo, mouse; conditions: for Mouse growth: AIN-93G diet with the compound as folate source, over at least an 8-week period
HeLa cells [4] = test: Cell proliferation of HeLa cells in Defined αMEM supplemented with folate forms (bright field image analysis); assay type: cell-based; conditions: range of concentrations, approximately three doublings, compared with Leucovorin and folic acid (FIGS. 6A, 6C)
Procedure: as §1

[5] = Chemical stability of folates incubated in Defined αMEM at 65° C., read out by L. casei assay; assay type: physicochemical; conditions: for Chemical stability relative to 5-methyltetrahydrofolate: 65° C., pH 7.2, Defined αMEM (FIG. 8); for Chemical stability (support of growth in the microbiological assay): after 24 hours incubation at 65° C., pH 7.2 (FIG. 8)
Procedure: Folic acid and various reduced folates were incubated in Defined αMEM (described above) in sterile Eppendorf tubes at 65° C. and sampled at 0, 0.5, 1, 2, 4, 8, and 24 hours. The sampled aliquots were immediately mixed with L. casei extraction buffer containing sodium ascorbate to protect folates from oxidative degradation and frozen at −80° C. The L. casei assay was performed as previously described (Suh et al., “Purification and Properties of a Folate-Catabolizing Enzyme,” J Biol. Chem. 275(45):35646-35655 (2000), which is hereby incorporated by reference in its entirety).

HeLa cells [6] = test: Total intracellular folate measurement in HeLa cells (L. casei microbiological assay); assay type: cell-based
Procedure: HeLa cells were cultured in Defined αMEM (as described above) lacking folate for two doublings to deplete cellular folates, then plated into 6-well plates (1000 cells/well) and cultured for two cell doublings with Defined αMEM culture media (described above) supplemented with 200 μM methionine, 0.5 g/L pyridoxine, and either 2 nM or 20 nM (6S)-Leucovorin or novel folate derivative. Total intracellular folates were quantified using a microbiological (Lactobacillus casei, or L. casei) assay as previously described (Suh et al., “Purification and Properties of a Folate-Catabolizing Enzyme,” J. Biol. Chem. 275(45):35646-35655 (2000), which is hereby incorporated by reference in its entirety). Data is represented as mean±SEM of three biological replicates per condition.

[7] = Acid stability (conversion to 5,10-methenyltetrahydrofolate); assay type: physicochemical; conditions: conversion to 5,10-methenyltetrahydrofolate in acid; no method described

SMILES | Stability as a component of AIN-93G rodent food [2] | Chemical stability (support of growth in the microbiological assay) [5] | Mouse growth [3] | Chemical stability relative to 5-methyltetrahydrofolate [5] | Chemical stability relative to 5-methyltetrahydrofolate ([5]; 10-formyltetrahydrofolate) | further results
CN1c2c(nc(N)[nH]c2=O)NC[C@H]1CN(C=O)c1ccc(C(=O)N[C@@H](CCC(=O)O)C(=O)O)cc1 [(6S)-5-methyl, 10-formyltetrahydrofolate] | – | – | – | chemically more stable than 5-methyltetrahydrofolate | increased chemical stability relative to (6S) 5-methyltetrahydrofolate | Proliferation / support of cell growth ([1]; 10-formyl-THF): support cell growth in a similar dose-response as (6S)-Leucovorin and are superior to folic acid; Total cellular folate (HeLa cells [6]; HeLa cells cultured with 20 nM compound, compared with 2 nM (6S)-Leucovorin): equivalent to total cellular folate in HeLa cells cultured in 2 nM (6S)-Leucovorin; Total intracellular folate levels (HeLa cells [6]; HeLa cells, 2 nM or 20 nM folate form, (6S)-Leucovorin vs (6S)-5-methyl, 10-formyltetrahydrofolate (FIG. 7)): higher with (6S)-Leucovorin than with (6S)-5-methyl, 10-formyltetrahydrofolate; Proliferation / support of cell growth (HeLa cells [4]; 10-formyl-THF): support cell growth in a similar dose-response as (6S)-Leucovorin and are superior to folic acid
Nc1nc2ncc(CNc3ccc(C(=O)N[C@@H](CCC(=O)O)C(=O)O)cc3)nc2c(=O)[nH]1 [folic acid, reference compound] | completely stable | continued to support growth | promote mouse growth | – | – | –

Second part, led by results:

Stability as a component of AIN-93G rodent food [2] | Chemical stability (support of growth in the microbiological assay) [5] | SMILES | Mouse growth [3] | Chemical stability relative to 5-methyltetrahydrofolate [5] | Chemical stability relative to 5-methyltetrahydrofolate ([5]; 10-formyltetrahydrofolate) | further results
completely stable | – | Nc1nc2c(c(=O)[nH]1)N(C=O)[C@H](CN(C=O)c1ccc(C(=O)N[C@@H](CCC(=O)O)C(=O)O)cc1)CN2 [(6S)-5-formyl, 10-formyltetrahydrofolate] | promote mouse growth | chemically more stable than 5-methyltetrahydrofolate | increased chemical stability relative to (6S) 5-methyltetrahydrofolate | Proliferation / support of cell growth ([1]; 10-formylTHF): support cell growth in a similar dose-response as (6S)-Leucovorin and are superior to folic acid; Adverse symptoms ([3]; mice fed AIN-93G diet containing the compound for 8 weeks): without any adverse symptoms; Proliferation / support of cell growth (HeLa cells [4]; 10-formylTHF): support cell growth in a similar dose-response as (6S)-Leucovorin and are superior to folic acid
– | completely destroyed | CN1c2c(nc(N)[nH]c2=O)NC[C@@H]1CNc1ccc(C(=O)N[C@@H](CCC(=O)O)C(=O)O)cc1 [5-methyl-tetrahydrofolate, (6S) 5-methyltetrahydrofolate, reference compound] | – | – | – | –
– | continued to support growth | Nc1nc2c(c(=O)[nH]1)N(C=O)[C@@H](CNc1ccc(C(=O)N[C@@H](CCC(=O)O)C(=O)O)cc1)CN2 [(6S)-Leucovorin, (6S)-5-formyltetrahydrofolate, reference compound] | – | – | – | Stability in acid [7]: unstable in acid
